# According to article PMC11352099 (RSC Medicinal Chemistry, 2024):
# “And” between values parts separate entries of the source, which are not always exact repeats. Equal entries are not always repeated. Where two headings read alike, the source gives them in different places.
# Experiments:
# SARS-CoV-2 nsp14 MTase = SARS-CoV-2 nsp14 MTase (Severe acute respiratory syndrome coronavirus 2, UniProt P0DTD1); assay: biochemical; type: biochemical; conditions: for Hill slope: Table S1, dose-response curve, variable slope model
# in vitro = conditions: human
# Method: (§1) 3.5. Caco-2 permeability assay
# (§2) Transepithelial bi-directional transport of compounds (10 µM, pH 7.4/7.4) was tested on 21-day differentiated Caco-2 monolayers. Briefly, the cells were seeded at a density of 67 ,500 cells per 96-well plate insert (Millicell®, Merck KGaA, Darmstadt, Germany). They were left to differentiate for 21 days with medium exchange every 2–3 days. Prior to the experiment, the medium from both apical and basolateral well was exchanged for HBSS buffer (containing 10 mM HEPES and 25 mM glucose) and left to equilibrate for 30 min. Compound permeability was assayed by replacing pure HBSS with HBSS containing 10 μM compounds and 220 μM Lucifer yellow (LY) solution in an apical insert (A to B transport) or in a basolateral well (B to A transport). The tre ated cells were then returned to the incubator for 2 h at 37 °C. After that, samples were collected from both apical inserts and basolateral wells and analyzed using LC -MS/MS (SCIEX Triple Quad™ 7500 QTRAP® Ready). LC separation was done on Synergi 4µm Fusion 50 × 2 mm column (Phenomenex) using a water/acetonitrile gradient with 0.1% formic acid starting from 2 to 98% for 4.5 min.
# (§3) The apparent permeability coefficient (Papp) was calculated from t he following equation: Papp = (dQ / dt) / C0 * A, where dQ/dt is the rate of absorption of the drug across the cells, C0 is the donor compartment concentration at time zero, and A is the area of the monolayer. Efflux ratio was expressed as (Papp B -A) / (Papp A-B). Recovery (%) was determined as (total compound mass i n donor and receiver compartments at the end of the incubation / initial compound mass in the donor compartment) x 100. The data represent means ± SD of two independent experiments performed in triplicate. […]
# (§4) were used as control compounds.
# Caco-2 monolayers = assay: in vitro; conditions: Caco-2
# Method: as §1, §2, §3, §4
# [1] = 120 min, 10 μM
# [2] = microsomes, 0.75 h, 10 µM, pH 7.4
# [3] = 120 min, 10 μM; remark: listed apart in the source
# [4] = tested on: SARS-CoV-2 strain hCoV-19/Czech Republic/NRL_6632_2/2020; assay: microbe, parasite or virus in culture; type: cell-based; conditions: Severe acute respiratory syndrome coronavirus 2; Calu-3 cell line; read-out: EC50 (antiviral effect)
# human RNMT = human RNMT (Homo sapiens, UniProt O43148); assay: Off-target inhibition of human RNMT; type: biochemical; conditions: 25 μM concentration of inhibitor
# Sequence of human RNMT (O43148 whole entry): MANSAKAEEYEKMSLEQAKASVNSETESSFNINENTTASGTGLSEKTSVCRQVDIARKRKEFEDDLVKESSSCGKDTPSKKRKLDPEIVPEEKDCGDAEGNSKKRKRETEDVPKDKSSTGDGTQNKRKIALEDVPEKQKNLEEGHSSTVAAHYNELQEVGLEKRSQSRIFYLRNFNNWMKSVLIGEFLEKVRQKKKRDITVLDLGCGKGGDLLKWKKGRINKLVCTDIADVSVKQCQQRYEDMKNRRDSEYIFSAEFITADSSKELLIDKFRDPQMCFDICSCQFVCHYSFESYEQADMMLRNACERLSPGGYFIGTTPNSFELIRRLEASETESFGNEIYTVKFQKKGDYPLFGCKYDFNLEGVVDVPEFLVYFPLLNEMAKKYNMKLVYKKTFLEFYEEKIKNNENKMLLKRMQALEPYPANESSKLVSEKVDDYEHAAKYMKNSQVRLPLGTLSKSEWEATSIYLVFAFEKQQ
# Description: Human cells rely on several MTases; therefore, it is necessary to assess the possible off-target effect. […]
# [5] = microsomes, 0.75 h, 10 µM, pH 7.4; remark: listed apart in the source
# [6] = Table 1 and text, N.I., no inhibition, read-out: IC50
# [7] = Table 1 and text, N.I., no inhibition
# [8] = Table S1, read-out: IC50 (inhibitory activity)
compound,measurement,setting,value
COC(=O)c1ccc(NC(=O)[C@H]2O[C@@H](n3cnc4c(N)ncnc43)[C@H](O)[C@@H]2O)cc1 [12a],IC50,SARS-CoV-2 nsp14 MTase; [6],> 25000 nM
NC(=O)c1ccc(NC(=O)[C@H]2O[C@@H](n3cnc4c(N)ncnc43)[C@H](O)[C@@H]2O)cc1 [12b],IC50,SARS-CoV-2 nsp14 MTase; [7],N.I.
COc1cccc(NC(=O)[C@H]2O[C@@H](n3cnc4c(N)ncnc43)[C@H](O)[C@@H]2O)c1 [12c],IC50,SARS-CoV-2 nsp14 MTase; [7],N.I.
COc1ccc(NC(=O)[C@H]2O[C@@H](n3cnc4c(N)ncnc43)[C@H](O)[C@@H]2O)cc1O [12d],IC50,SARS-CoV-2 nsp14 MTase; [6],> 25000 nM
Cc1ccc(NC(=O)[C@H]2O[C@@H](n3cnc4c(N)ncnc43)[C@H](O)[C@@H]2O)cc1O [12e],IC50,SARS-CoV-2 nsp14 MTase; [7],N.I.
COC(=O)c1cc(NC(=O)[C@H]2O[C@@H](n3cnc4c(N)ncnc43)[C@H](O)[C@@H]2O)ccc1F [12f],IC50,SARS-CoV-2 nsp14 MTase; [7],N.I.
"Nc1ncnc2c1ncn2[C@@H]1O[C@H](C(=O)Nc2ccc(-c3ccoc3)cc2)[C@@H](O)[C@H]1O [12g, (2S,3S,4R,5R)-5-(6-Amino-9H-purin-9-yl)-N-(4-(furan-3-yl)phenyl)-3,4-dihydroxytetrahydrofuran-2-carboxamide]",IC50,SARS-CoV-2 nsp14 MTase; [7],N.I.
Nc1ncnc2c1ncn2[C@@H]1O[C@H](C(=O)Nc2ccc(-c3ccsc3)cc2)[C@@H](O)[C@H]1O [12h],IC50,SARS-CoV-2 nsp14 MTase; [7],N.I.
Nc1ncnc2c1ncn2[C@@H]1O[C@H](C(=O)Nc2ccc(-c3cn[nH]c3)cc2)[C@@H](O)[C@H]1O [12i],IC50,SARS-CoV-2 nsp14 MTase; [7],N.I.
Cc1noc(C)c1-c1ccc(NC(=O)[C@H]2O[C@@H](n3cnc4c(N)ncnc43)[C@H](O)[C@@H]2O)cc1 [12j],IC50,SARS-CoV-2 nsp14 MTase; [7],N.I.
Nc1ncnc2c1ncn2[C@@H]1O[C@H](C(=O)Nc2ccc3c(c2)OCCO3)[C@@H](O)[C@H]1O [12k],IC50,SARS-CoV-2 nsp14 MTase; [6],1800 nM and 1810 nM
same,Hill slope,SARS-CoV-2 nsp14 MTase,-1.01
same,IC50,SARS-CoV-2 nsp14 MTase; [8],1810 nM
Cc1cc(=O)oc2cc(NC(=O)[C@H]3O[C@@H](n4cnc5c(N)ncnc54)[C@H](O)[C@@H]3O)ccc12 [12l],"efflux ratio at 2 h, 10 µM",in vitro; Caco-2,3.4
same,"recovery at 2 h, 10 µM","in vitro; Caco-2, Recovery (%) A-B",85%
same,"recovery at 2 h, 10 µM","in vitro; Caco-2, Recovery (%) B-A",83%
same,"Papp A→B at 2 h, 10 µM","in vitro; Caco-2, pH 7.4",3.1 ± 1.3 ×10⁻⁶ cm/s
same,"Papp B→A at 2 h, 10 µM","in vitro; Caco-2, pH 7.4",10.7 ± 2.5 ×10⁻⁶ cm/s
same,Papp A-B,Caco-2 monolayers,3.1 ± 1.3 cm/s x 10-6
same,Papp B-A,Caco-2 monolayers,10.7 ± 2.5 cm/s x 10-6
same,IC50,SARS-CoV-2 nsp14 MTase; [6],360 ± 40 nM
same,Hill slope,SARS-CoV-2 nsp14 MTase,-1.39
same,IC50,SARS-CoV-2 nsp14 MTase; [8],364 nM
same,"Plasma stability % of the parent compound after 120 min, Mouse",[1],93 ± 2.7%
same,"Microsomal stability % of the parent compound after 45 min, Mouse",[2],95 ± 5.0%
same,"Plasma stability % of the parent compound after 120 min, Human",[3],103 ± 3.3%
same,EC50,[4],> 50000 nM
same,inhibitory activity against RNMT,human RNMT,None of the tested compounds exhibited any inhibitory activity
same,"Microsomal stability % of the parent compound after 45 min, Human",[5],104 ± 4.1%
